In patent US20260315461A1, “NEW 5H-PYRROLO[3,2-B:5,4-C']DIPYRIDINE DERIVATIVES AND 6,7,8,9-TETRAHYDRO-5H-PYRROLO[3,2-B:5,4-C']DIPYRIDINE USEFUL IN THE TREATMENT OF CANCER” (INSTITUT REGIONAL DU CANCER DE MONTPELLIER, priority 2023, published 2026):
Structures can show the parent of a compound that is named as a salt.

How the values were obtained:
Chromatin-MDM2 = biological target: T1, Chromatin-MDM2 (Homo sapiens, UniProt Q00987); assay: MDM2 degradation by western blot and immunofluorescence, chromatin-bound MDM2 (IB111 cells dependent on C-MDM2); assay type: cell-based; conditions: IB111 (presence of C-MDM2), degradation efficacy; for Dmax: human
T1 construct: endogenous in cells; host or cells: IB111
Procedure: (§1) MDM2 degradation is measured by western blot and immunofluorescence.
(§2) Cells were seeded in 6-well plates (Sarsted) in complete DMEM medium as to obtain triplicates for each condition (500 000 cells/well). After 24 hours, the compounds were added to the cells. Then, 18 hours later cells were collected for western blotting or immunofluorescence. • Western Blot: Cells were collected in Laemmli buffer, boiled and analyzed in 8% acrylamide gel. • Immunofluorescence: Cancer cells were fixed with paraformaldehyde (PFA) 4% for 15 minutes then permeabilized for 15 minutes at RT with phosphate-buffered saline (PBS) Triton 0.1% and blocked with Phosphate buffered saline-[…] (PBS-BSA) 0.3% for 1 hour at RT before overnight incubation at 4° C. with an anti-mouse monoclonal antibody against MDM2 (MABE340 Millipore). Immunodetection was performed using an Alexa 488-conjugated anti-mouse IgG antibody (Thermo Fisher) for 45 minutes at RT. Cover glasses were mounted with Mowiol (Biovalley) and DAPI (Sigma) before analysis on a Zeiss apotome.

Hpac/ZR75.1 cells = assay: Cell survival, Sulforhodamine B assay (SRB assay), cancer cells not exhibiting recruitment of MDM2 to chromatin; assay type: cell-based
Procedure: (§3) Cell survival after MDM2 inhibitor treatment (IC50) was determined using the Sulforhodamine B assay (SRB assay).
(§4) Cells were seeded in 96-well plates (Sarsted) in complete DMEM medium as to obtain triplicates for each condition (5 000 cells/well). After 24 hours, serial dilutions of the indicated compounds were added to the cells. Then 48 hours later, cells were fixed by adding a 10% Trichloroacetic acid solution and stained with a 0,4% SRB solution in 1% acetic acid. Fixed SRB was finally dissolved in 10 mM Tris-HCl solution and 560 nm absorbance was read using a PHERAstar FSX plate reader.

Cytoplasmic-MDM2 = biological target: T2, Cytoplasmic-MDM2 (Homo sapiens, UniProt Q00987); assay: MDM2 degradation by western blot and immunofluorescence, cytoplasmic MDM2 (Hpac/ZR75.1 cells, absence of C-MDM2); assay type: cell-based; conditions: Hpac/ZR75.1 (absence of C-MDM2), degradation efficacy; for Dmax: human
T2 construct: endogenous in cells; host or cells: Hpac/ZR75.1
Procedure: as §1, §2

liposarcoma cells IB111 = assay: In vivo anti-tumor efficacy in nude mice engrafted with liposarcoma cells IB111; conditions: 20 mg/kg i.p. daily for 3 weeks, from tumor 100 mm^3
Procedure: In order to support the in vitro results, in vivo evaluation of the anti-tumor efficacy was performed on compound (4) according to the present invention having evidenced the antitumoral activity in examples 9 and 10 above.
10 mice per group were engrafted with liposarcoma cells IB111. Mice were housed in a pathogen-free barrier facility in accordance with the regional ethics committee for animal [COMPOUND LEFT OUT] (n° CEEA-LR-12067). When tumor reached 100 mm^3, the compound of formula (I) was administered by intra peritoneal i.p. injection at the dose of 20 mg/kg daily for 3 weeks.

IB111 cells = assay: Cell survival, Sulforhodamine B assay (SRB assay), cancer cells exhibiting recruitment of MDM2 to chromatin; assay type: cell-based
Procedure: as §3, §4

MDM2 protein = conditions: WO2016/049453 and Wang et al. 2014; cited from earlier work
MDM2-p53 interaction = conditions: WO2016/049453 and Wang et al. 2014; cited from earlier work
[1] = tested on: p53 wild type, p53 mutant and p53 null cancer cells; conditions: cited from earlier work

T2 sequence (Q00987 whole entry): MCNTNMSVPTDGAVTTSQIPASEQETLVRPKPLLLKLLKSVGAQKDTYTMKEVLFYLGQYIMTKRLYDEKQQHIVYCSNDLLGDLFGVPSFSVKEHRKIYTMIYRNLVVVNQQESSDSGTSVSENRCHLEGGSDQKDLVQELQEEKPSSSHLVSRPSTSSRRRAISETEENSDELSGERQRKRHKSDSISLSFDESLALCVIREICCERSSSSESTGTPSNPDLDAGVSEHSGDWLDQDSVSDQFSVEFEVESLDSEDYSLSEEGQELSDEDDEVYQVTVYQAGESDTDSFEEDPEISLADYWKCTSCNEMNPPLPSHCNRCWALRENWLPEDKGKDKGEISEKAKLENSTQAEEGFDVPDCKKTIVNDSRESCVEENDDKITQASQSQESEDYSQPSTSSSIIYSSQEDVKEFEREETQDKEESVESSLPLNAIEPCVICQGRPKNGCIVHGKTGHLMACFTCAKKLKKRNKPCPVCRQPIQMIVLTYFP
T1 sequence (Q00987 whole entry): as above

Row | Structure (SMILES) | Dmax (Chromatin-MDM2) | Dmax (Cytoplasmic-MDM2) | Chromatin-MDM2 degradation (Chromatin-MDM2) | efficacy on cancer cells not exhibiting recruitment of MDM2 to chromatin (cell survival) (Hpac/ZR75.1 cells) | Cytoplasmic-MDM2 degradation (Cytoplasmic-MDM2) | other results
1 | COc1ccc2[nH]c3c(-c4cccc5ccccc45)nccc3c2n1 [Compound 1, 2-methoxy-6-(naphthalen-1-yl)-5H-pyrrolo[3,2-b:5,4-c′]dipyridine] | – | – | +++ (+++≥80%) | not efficient | – | –
2 | COc1ccc2[nH]c3c(-c4ccnc5nccnc45)nccc3c2n1 [Compound 3, 2-methoxy-6-(pyrido[2,3-b]pyrazin-8-yl)-5H-pyrrolo[3,2-b:5,4-c′]dipyridine] | 25 to 40% | < 25% | – | – | – | –
3 | COc1ccc2[nH]c3c(-c4cccc5ccccc45)nccc3c2n1.Cl [Compound 4, 2-methoxy-6-(naphthalen-1-yl)-5H-pyrrolo[3,2-b:5,4-c′]dipyridine hydrochloride] | – | – | +++ (+++≥80%) | not efficient | − (<25%: no degradation: indicated“−” in the table) | tumor reduction (liposarcoma cells IB111): greater than 75%
4 | COc1ccc2[nH]c3c(-c4ccnc5ccccc45)nccc3c2n1 [Compound 6, 2-methoxy-6-(quinolin-4-yl)-5H-pyrrolo[3,2-b:5,4-c′]dipyridine] | 25 to 40% | < 25% | – | – | – | –
5 | COc1ccc2[nH]c3c(-c4cccc5ccccc45)nccc3c2n1.O=C(O)/C=C/C(=O)O [Compound 10, 2-methoxy-6-(naphthalen-1-yl)-5H-pyrrolo[3,2-b:5,4-c′]dipyridine fumarate] | – | – | +++ (+++≥80%) | not efficient | − (<25%: no degradation: indicated“−” in the table) | –
6 | COc1ccc2[nH]c3c(-c4cccc5ccccc45)nccc3c2n1.O=C(O)CC(O)(CC(=O)O)C(=O)O [Compound 11, 2-methoxy-6-(naphthalen-1-yl)-5H-pyrrolo[3,2-b:5,4-c′]dipyridine 2-hydroxypropane-1,2,3-tricarboxylate] | – | < 25% | +++ (+++≥80%) | not efficient | – | –
7 | COc1ccc2[nH]c3c(-c4cccc5ccccc45)nccc3c2n1.O=P(O)(O)O [Compound 12, 2-methoxy-6-(naphthalen-1-yl)-5H-pyrrolo[3,2-b:5,4-c′]dipyridine phosphate] | – | – | – | not efficient | − (<25%: no degradation: indicated“−” in the table) | –
8 | COc1ccc2[nH]c3c(-c4cccc5ccccc45)nccc3c2n1 [Compound 13, 2-methoxy-6-(naphthalen-1-yl)-5H-pyrrolo[3,2-b:5,4-c′]dipyridine sulfate] | – | – | – | – | − (<25%: no degradation: indicated“−” in the table) | Chromatin-MDM2 degradation (Chromatin-MDM2; sulfate): ++ (40%≤++<80%)
9 | COc1ccc2[nH]c3c(-c4cccc5c4CCCC5)nccc3c2n1 [Compound 14, 2-methoxy-6-(5,6,7,8-tetrahydronaphthalen-1-yl)-5H-pyrrolo[3,2-b:5,4-c′]dipyridine] | ≥ 80% | < 25% | – | not efficient | – | –
10 | COc1ccc2[nH]c3c(-c4cccc5c4CCCC5)nccc3c2n1.Cl [Compound 16, 2-methoxy-6-(5,6,7,8-tetrahydronaphthalen-1-yl)-5H-pyrrolo[3,2-b:5,4-c′]dipyridine hydrochloride] | – | – | +++ (+++≥80%) | not efficient | − (<25%: no degradation: indicated“−” in the table) | –
11 | COc1ccc2[nH]c3c(-c4ccc(F)c5ccccc45)nccc3c2n1.Cl [Compound 17, 6-(4-fluoronaphthalen-1-yl)-2-methoxy-5H-pyrrolo[3,2-b:5,4-c′]dipyridine hydrochloride] | – | – | – | – | − (<25%: no degradation: indicated“−” in the table) | –
12 | Cl.Clc1ccc2[nH]c3c(-c4cccc5ccccc45)nccc3c2n1 [Compound 19, 2-chloro-6-(naphthalen-1-yl)-5H-pyrrolo[3,2-b:5,4-c′]dipyridine hydrochloride] | – | – | ++ (40%≤++<80%) | not efficient | − (<25%: no degradation: indicated“−” in the table) | IC50 (IB111 cells): < 500 nM
13 | COc1ccc2[nH]c3c(-c4cccc5c(F)cccc45)nccc3c2n1.Cl [Compound 22, 6-(5-fluoronaphthalen-1-yl)-2-methoxy-5H-pyrrolo[3,2-b:5,4-c′]dipyridine hydrochloride] | – | – | + (25%≤+<40%) | – | − (<25%: no degradation: indicated“−” in the table) | –
14 | Cl.c1ccc2c(-c3nccc4c3[nH]c3ccc(OC5CC5)nc34)cccc2c1 [Compound 25, 2-cyclopropoxy-6-(naphthalen-1-yl)-5H-pyrrolo[3,2-b:5,4-c′]dipyridine hydrochloride] | – | – | +++ (+++≥80%) | not efficient | − (<25%: no degradation: indicated“−” in the table) | –
15 | COc1ccc2[nH]c3c(-c4cccc5ccccc45)nccc3c2c1 [SP-141] | – | – | – | – | – | binding to MDM2 protein (MDM2 protein): directly binding to MDM2 protein; inhibition of the MDM2-p53 interaction (MDM2-p53 interaction): inhibiting the MDM2-p53 interaction; anticancer activity [1]: able to exert anticancer activity in p53 wild type, p53 mutant and p53 null cancer cells

Now from value to molecule, other results behind:

Row | Dmax (Chromatin-MDM2) | Dmax (Cytoplasmic-MDM2) | Structure (SMILES) | Chromatin-MDM2 degradation (Chromatin-MDM2) | efficacy on cancer cells not exhibiting recruitment of MDM2 to chromatin (cell survival) (Hpac/ZR75.1 cells) | Cytoplasmic-MDM2 degradation (Cytoplasmic-MDM2) | other results
16 | 40 to 80% | < 25% | COc1ccc2[nH]c3c(-c4ccc(F)c5ccccc45)nccc3c2n1 [Compound 15, 6-(4-fluoronaphthalen-1-yl)-2-methoxy-5H-pyrrolo[3,2-b:5,4-c′]dipyridine] | – | not efficient | – | –
17 | 25 to 40% | < 25% | Clc1ccc2[nH]c3c(-c4cccc5ccccc45)nccc3c2n1 [Compound 18, 2-chloro-6-(naphthalen-1-yl)-5H-pyrrolo[3,2-b:5,4-c′]dipyridine] | – | – | – | –
18 | 40 to 80% | < 25% | COc1ccc2[nH]c3c(-c4cc(F)cc5ccccc45)nccc3c2n1.Cl [Compound 20, 6-(3-fluoronaphthalen-1-yl)-2-methoxy-5H-pyrrolo[3,2-b:5,4-c′]dipyridine hydrochloride] | – | not efficient | – | IC50 (IB111 cells): < 500 nM
19 | 25 to 40% | < 25% | COc1ccc2[nH]c3c(-c4cccc5c(F)cccc45)nccc3c2n1 [Compound 21, 6-(5-fluoronaphthalen-1-yl)-2-methoxy-5H-pyrrolo[3,2-b:5,4-c′]dipyridine] | – | – | – | –
20 | 25 to 40% | < 25% | COc1ccc2[nH]c3c(-c4cccc5cccc(F)c45)nccc3c2n1 [Compound 23, 6-(8-fluoronaphthalen-1-yl)-2-methoxy-5H-pyrrolo[3,2-b:5,4-c′]dipyridine hydrochloride] | – | – | – | –
21 | ≥ 80% | < 25% | c1ccc2c(-c3nccc4c3[nH]c3ccc(OC5CC5)nc34)cccc2c1 [Compound 24, 2-cyclopropoxy-6-(naphthalen-1-yl)-5H-pyrrolo[3,2-b:5,4-c′]dipyridine] | – | not efficient | – | IC50 (IB111 cells): < 500 nM
